# Source: patent US20180071268A1, “COMPOSITIONS AND METHODS FOR TREATING MICROBIOTA-RELATED PSYCHOTROPIC CONDITIONS AND DISEASES” (priority 2013, published 2018)
# Columns and labels:
# Format in all cases: in vivo, human
# [1] = test system: Autistic Spectrum Disorder(ASD); assay: Treatment of child with Autistic Spectrum Disorder with Aztreonam, then added Vancomycin (case report); details: Aztreonam 50 mg 3 times daily; about two weeks after starting
# Protocol: A child who was diagnosed with development of Autistic Spectrum Disorder(ASD) with change in bowel habit, withdrawal from ‘society’ and loss of vocabulary/words/vocalizing ability as well as reduced socialisation and eye contact was treated with Aztreonam 50 mg 3 times daily.
# [2] = test system: ASD; assay: Treatment of person with ASD, chronic constipation and abdominal discomfort with oral Vancomycin (case report)
# Protocol: A patient was brought by their parent for consultation. They had been suffering from ASD since early childhood but also had chronic constipation and abdominal discomfort. The treatment was focussed on the constipation problem as this was the major component of their complaints when interviewed. They were commenced on to 50 mg Vancomycin twice daily for the first week increasing to 250 mg 3 times daily as an oral dose which is not absorbed. […] However they also noticed a change in behaviour of the child. They were much calmer, with their low vocabulary and inability to complain formally, they were no longer screaming and vocalising their pain using repetitive movements. […] This is both with verbal and non-verbal communication.
# [3] = test system: Autism Spectrum Disorder (ASD); assay: Treatment of twin sisters with Autism Spectrum Disorder and OCD component with oral Gentamicin, then added Rifaximin (case report); details: oral Gentamicin 80 mg 3 times daily in capsules; within three weeks
# Protocol: Twin sisters who were diagnosed with Autism Spectrum Disorder (ASD) at different levels of reading capability, writing and comprehension in Grade 3 and 4, together with abdominal cramping and alternating hard/soft defecation changes were started on oral Gentamicin 80 mg 3 times daily in capsules. […] After three weeks Rifaximin was added to the mix of drugs at a dose of 500 mg twice daily and the patients were further observed with a combination of Gentamicin and Rifaximin.
# [4] = test system: OCD; assay: Exemplary treatment of OCD in adult with rifaximin (case report)
# Protocol: A married office worker had suffered with OCD since childhood. Having been treated with various pharmacologic agents through life their behaviour patterns were largely controlled except for one behaviour of needing to check gas outlets and powerpoints every night in case their children were hurt or damaged overnight by some unforseen accident. This continued to be a ‘sleep-draining’ issue not controllable by Zoloft, anfranil and other drugs.
# They were commenced on rifaximin 500 mg capsules twice daily for the first week, then 1 g twice daily thereafter.
# They remain on long term rifaximin.
# [5] = oral Vancomycin, at four week interview
compound,measurement,setting,value
C[C@H]1[C@H](NC(=O)/C(=N\OC(C)(C)C(=O)O)c2csc(N)n2)C(=O)N1S(=O)(=O)O [Aztreonam],eye contact,[1],greater eye contact
same,loose motions,[1],reduction in the loose motions
same,socialisation with the other children,[1],greater socialisation
same,word power,[1],no increase in word power
CN[C@H](CC(C)C)C(=O)N[C@H]1C(=O)N[C@@H](CC(N)=O)C(=O)N[C@H]2C(=O)N[C@H]3C(=O)N[C@H](C(=O)N[C@H](C(=O)O)c4cc(O)cc(O)c4-c4cc3ccc4O)[C@H](O)c3ccc(c(Cl)c3)Oc3cc2cc(c3O[C@@H]2O[C@H](CO)[C@@H](O)[C@H](O)[C@H]2O[C@H]2C[C@](C)(N)[C@H](O)[C@H](C)O2)Oc2ccc(cc2Cl)[C@H]1O [Vancomycin],abdominal discomfort initially after start of treatment,"[2]; oral Vancomycin 50 mg twice daily first week increasing to 250 mg 3 times daily, initially",some increase in abdominal discomfort
same,side effects from the medication,"[2]; oral Vancomycin 750 mg to 1 g, nine months of treatment",without any undue side effects
same,"communication, verbal and non-verbal","[2]; oral Vancomycin, after four months",better communication between the parents and the child
same,behaviour of the child,[2]; [5],much calmer
same,constipation and pain,[2]; [5],markedly improved
same,repetitive movements,[2]; [5],came down quite markedly
same,pain,"[2]; oral Vancomycin, within a few days onwards",progressively disappeared
same,bowel function (evacuation frequency),"[2]; oral Vancomycin, within a few days, before: once every three to four days",daily or twice daily and even three times daily evacuation
Gentamicin,episodes of OCD behaviour,[3],marked reduction in the number of episodes of OCD behaviour
CO[C@H]1/C=C/O[C@@]2(C)Oc3c(C)c(O)c4c(O)c(c5c(nc6cc(C)ccn65)c4c3C2=O)NC(=O)/C(C)=C\C=C\[C@H](C)[C@H](O)[C@@H](C)[C@@H](O)[C@@H](C)[C@H](OC(C)=O)[C@@H]1C [rifaximin],persistence of the improvement during monitoring,[4]; next 3 months of monitoring their behaviour,almost universal
same,OCD behaviour: need to check gas outlets and powerpoints every night,"[4]; person, rifaximin 500 mg capsules twice daily first week, then 1 g twice daily",absence of the need to check the gas outlets and powerpoints
same,time until absence of the checking behaviour was noticed,"[4]; person, rifaximin 500 mg twice daily first week, then 1 g twice daily",≤ 10 days
